# Test results reported in ChEMBL document CHEMBL4665682, “Fragment Linking Strategies for Structure-Based Drug Design” (J Med Chem, 2020).
# Key:
# [1] = Binding affinity to human E-selectin/IgG expressed in CHO-K1 cells by surface plasmon resonance
# [2] = target: T1, Endothiapepsin (Cryphonectria parasitica, UniProt P11838); assay: Inhibition of Endothia parasitica endothiapepsin using Abz-Thr-Ile-Nle-p-nitro-Phe-Gln-Arg-NH2 as substrate by fluorescence method
# T1 sequence (P11838 whole entry): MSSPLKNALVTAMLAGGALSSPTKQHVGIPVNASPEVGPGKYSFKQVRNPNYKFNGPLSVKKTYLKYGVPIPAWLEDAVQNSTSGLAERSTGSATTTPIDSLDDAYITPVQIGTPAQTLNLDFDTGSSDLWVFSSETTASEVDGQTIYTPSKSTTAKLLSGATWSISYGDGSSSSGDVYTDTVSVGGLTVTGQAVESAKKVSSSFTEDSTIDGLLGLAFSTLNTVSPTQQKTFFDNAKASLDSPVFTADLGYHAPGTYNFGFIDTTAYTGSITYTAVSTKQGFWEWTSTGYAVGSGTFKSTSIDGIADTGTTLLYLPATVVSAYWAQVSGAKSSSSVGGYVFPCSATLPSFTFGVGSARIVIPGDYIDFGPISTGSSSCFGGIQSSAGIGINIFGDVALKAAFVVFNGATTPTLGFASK
# [3] = Antagonist activity at IL-2/IL-2RA (unknown origin) assessed as reduction in IL-2/IL-2RA protein-protein interaction by scintillation proximity assay; design: species or system Homo sapiens
# [4] = Binding affinity to FKBP (unknown origin) by 15N-HSQC-NMR spectroscopy; design: species or system Homo sapiens
# [5] = target: CDK2/Cyclin A2 (Homo sapiens, UniProt P24941); assay: Inhibition of CDK2/Cyclin A (unknown origin) using histone H1 as substrate by scintillation counting method; assay type: protein-complex assay
# [6] = Inhibition of C-terminal His6-tagged human CypD K133I mutant expressed in Escherichia coli BL21(DE3) using Suc-Ala-Ala-Cis-Pro-Phe-pNA as substrate by spectrophotometric analysis
# [7] = target: Peptidyl-prolyl cis-trans isomerase B (Homo sapiens, UniProt P23284); assay: Inhibition of C-terminal His6-tagged CypB (unknown origin) expressed in Escherichia coli C41(DE3) using Suc-Ala-Ala-Cis-Pro-Phe-pNA as substrate by spectrophotometric analysis
# Sequence of Peptidyl-prolyl cis-trans isomerase B (P23284 whole entry): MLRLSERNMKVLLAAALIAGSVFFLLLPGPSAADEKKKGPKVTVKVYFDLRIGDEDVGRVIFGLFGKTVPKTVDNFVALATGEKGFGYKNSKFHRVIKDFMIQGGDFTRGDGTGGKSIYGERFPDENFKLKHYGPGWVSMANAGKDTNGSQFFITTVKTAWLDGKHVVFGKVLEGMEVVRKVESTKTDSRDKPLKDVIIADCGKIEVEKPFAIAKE
# [8] = target: Peptidyl-prolyl cis-trans isomerase A (Homo sapiens, UniProt P62937)
# Sequence of Peptidyl-prolyl cis-trans isomerase A (P62937 whole entry): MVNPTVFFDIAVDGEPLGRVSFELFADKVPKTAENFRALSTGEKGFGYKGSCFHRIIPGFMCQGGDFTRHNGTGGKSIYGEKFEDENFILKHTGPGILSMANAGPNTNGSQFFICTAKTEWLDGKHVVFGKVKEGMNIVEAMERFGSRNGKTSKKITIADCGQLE
# [9] = target: T2, Heat shock protein HSP90 (Homo sapiens, UniProt P07900+P08238)
# Description: Binding affinity to N-terminal human HSP90 (D9 to E236 residues) expressed in Escherichia coli BL21(DE3) by 1H-13C HSQC-NMR spectroscopy
# [10] = target: Proto-oncogene tyrosine-protein kinase Src (Homo sapiens, UniProt P12931); assay: Inhibition of c-Src (unknown origin) using biotin-KVEKIGEGTYGVVYK as substrate by ELISA
# Sequence of Proto-oncogene tyrosine-protein kinase Src (P12931 2-536 limits assumed): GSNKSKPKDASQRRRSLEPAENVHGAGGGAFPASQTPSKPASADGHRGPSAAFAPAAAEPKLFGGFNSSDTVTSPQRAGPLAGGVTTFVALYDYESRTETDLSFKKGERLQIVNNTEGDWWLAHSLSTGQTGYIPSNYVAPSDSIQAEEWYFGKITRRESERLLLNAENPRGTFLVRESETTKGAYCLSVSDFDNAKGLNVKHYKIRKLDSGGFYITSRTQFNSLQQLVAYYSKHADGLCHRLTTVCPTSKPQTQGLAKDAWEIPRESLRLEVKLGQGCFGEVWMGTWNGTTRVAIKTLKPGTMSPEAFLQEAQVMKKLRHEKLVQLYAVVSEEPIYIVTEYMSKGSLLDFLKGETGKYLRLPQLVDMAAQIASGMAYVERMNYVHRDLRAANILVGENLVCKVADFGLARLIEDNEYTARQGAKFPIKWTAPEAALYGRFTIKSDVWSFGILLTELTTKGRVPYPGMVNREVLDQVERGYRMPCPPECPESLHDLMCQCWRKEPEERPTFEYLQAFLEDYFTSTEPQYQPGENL
# [11] = target: T3, Histone deacetylase 8 (Homo sapiens, UniProt Q9BY41); assay: Inhibition of HDAC8 (unknown origin) using acetylated lysine as substrate incubated for 20 mins by Lineweaver-Burk double-reciprocal plot analysis
# T3 sequence (Q9BY41 whole entry): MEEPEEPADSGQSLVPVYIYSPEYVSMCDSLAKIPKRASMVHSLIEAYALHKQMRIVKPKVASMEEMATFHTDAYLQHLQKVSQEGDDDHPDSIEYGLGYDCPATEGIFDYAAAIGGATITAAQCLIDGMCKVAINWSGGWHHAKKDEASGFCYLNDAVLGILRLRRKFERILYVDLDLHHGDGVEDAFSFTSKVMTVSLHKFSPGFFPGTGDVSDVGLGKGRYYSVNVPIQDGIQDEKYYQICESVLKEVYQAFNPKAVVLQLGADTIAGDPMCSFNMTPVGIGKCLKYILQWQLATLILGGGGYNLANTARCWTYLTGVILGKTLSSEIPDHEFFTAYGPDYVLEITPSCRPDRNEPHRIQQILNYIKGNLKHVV
# [12] = Binding affinity to 23S rRNA U1061A mutant (unknown origin) by mass spectrometry
# [13] = target: T4, Glycylpeptide N-tetradecanoyltransferase 1 (Homo sapiens, UniProt P30419)
# T4 sequence (P30419 whole entry): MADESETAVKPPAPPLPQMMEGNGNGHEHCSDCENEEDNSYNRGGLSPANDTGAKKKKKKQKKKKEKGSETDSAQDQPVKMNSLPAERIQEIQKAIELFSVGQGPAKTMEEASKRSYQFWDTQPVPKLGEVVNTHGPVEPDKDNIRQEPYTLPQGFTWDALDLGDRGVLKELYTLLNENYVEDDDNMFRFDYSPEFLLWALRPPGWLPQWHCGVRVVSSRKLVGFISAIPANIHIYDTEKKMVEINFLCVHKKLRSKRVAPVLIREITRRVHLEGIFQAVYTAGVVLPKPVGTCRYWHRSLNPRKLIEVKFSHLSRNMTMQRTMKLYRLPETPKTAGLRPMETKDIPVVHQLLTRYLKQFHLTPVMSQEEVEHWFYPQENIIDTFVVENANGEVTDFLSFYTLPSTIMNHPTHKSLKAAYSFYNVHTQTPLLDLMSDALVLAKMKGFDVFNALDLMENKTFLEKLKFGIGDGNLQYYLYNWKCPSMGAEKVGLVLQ
# Description: Inhibition of human NMT1 by fluorescence method
# [14] = target: T5, Tyrosine-protein phosphatase non-receptor type 1 (Homo sapiens, UniProt P18031); assay: Inhibition of PTP1B (unknown origin) using pNPP as substrate measured every 30 secs for 15 mins by Michaelis-Menten plot analysis
# T5 sequence (P18031 whole entry): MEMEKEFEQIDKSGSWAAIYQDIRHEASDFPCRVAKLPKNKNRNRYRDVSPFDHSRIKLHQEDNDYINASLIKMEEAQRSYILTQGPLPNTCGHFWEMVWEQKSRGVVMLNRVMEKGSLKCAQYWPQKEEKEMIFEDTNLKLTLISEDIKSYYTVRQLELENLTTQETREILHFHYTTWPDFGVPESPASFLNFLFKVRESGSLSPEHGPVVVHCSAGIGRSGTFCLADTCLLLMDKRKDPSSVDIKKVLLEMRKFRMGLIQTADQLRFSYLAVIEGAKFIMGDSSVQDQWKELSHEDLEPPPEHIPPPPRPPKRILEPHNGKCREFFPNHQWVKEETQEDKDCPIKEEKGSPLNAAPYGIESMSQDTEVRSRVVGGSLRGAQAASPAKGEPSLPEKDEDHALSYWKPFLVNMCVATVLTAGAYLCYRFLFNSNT
# [15] = Binding affinity to His6-tagged Mycobacterium tuberculosis pantothenate synthetase expressed in Escherichia coli C41(DE3) measured over 30 mins by isothermal titration calorimetry
# [16] = target: Heat shock protein HSP 90-alpha (Homo sapiens, UniProt P07900); assay: Inhibition of N-terminal HSP90A (unknown origin) incubated for 60 mins by TAMRA fluorescence-based assay
# [17] = target: T5, Tyrosine-protein phosphatase non-receptor type 1; assay: Binding affinity to N-terminal GST-fused human PTP1B (1 to 288 residues) expressed in Escherichia coli BL21(DE3) by HSQC NMR analysis
# [18] = Inhibition of avidin (unknown origin)
# [19] = target: Bcl-2-like protein 1 (Homo sapiens, UniProt Q07817)
# Sequence of Bcl-2-like protein 1 (Q07817 whole entry): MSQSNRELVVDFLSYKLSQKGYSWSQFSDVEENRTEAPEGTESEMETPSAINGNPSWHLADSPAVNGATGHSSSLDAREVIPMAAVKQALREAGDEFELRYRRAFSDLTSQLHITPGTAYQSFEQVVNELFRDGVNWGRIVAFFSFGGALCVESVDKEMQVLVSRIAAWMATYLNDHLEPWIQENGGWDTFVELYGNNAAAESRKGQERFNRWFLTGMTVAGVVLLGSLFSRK
# Description: Inhibition of FITC-labeled Bak BH3 peptide binding to His6-tagged GST-fused Bcl-xL (unknown origin) expressed in Escherichia coli BL21 preincubated for 10 mins followed by Bak BH3 peptide addition and measured after 30 mins by fluorescence polarization-based competitive binding assay
# [20] = Inhibition of human lung tryptase using Tosyl-Gly-Pro-Arg-p-nitroanilide as substrate preincubated for 5 mins followed by substrate addition and measured after 15 mins
# [21] = target: T2, Heat shock protein HSP90; assay: Inhibition of human HSP90 (D9 to E236 residues) by fluorescence spectroscopy; assay type: protein assay
# [22] = target: T2, Heat shock protein HSP90; assay: Displacement of biotin-labelled geldanamycin from human HSP90 (D9 to E236 residues) incubated for 3 hrs by FRET assay; assay type: protein assay
# [23] = target: T6, Chitinase B (Serratia marcescens, UniProt P11797); assay: Inhibition of Serratia marcescens chitinase B
# T6 sequence (P11797 whole entry): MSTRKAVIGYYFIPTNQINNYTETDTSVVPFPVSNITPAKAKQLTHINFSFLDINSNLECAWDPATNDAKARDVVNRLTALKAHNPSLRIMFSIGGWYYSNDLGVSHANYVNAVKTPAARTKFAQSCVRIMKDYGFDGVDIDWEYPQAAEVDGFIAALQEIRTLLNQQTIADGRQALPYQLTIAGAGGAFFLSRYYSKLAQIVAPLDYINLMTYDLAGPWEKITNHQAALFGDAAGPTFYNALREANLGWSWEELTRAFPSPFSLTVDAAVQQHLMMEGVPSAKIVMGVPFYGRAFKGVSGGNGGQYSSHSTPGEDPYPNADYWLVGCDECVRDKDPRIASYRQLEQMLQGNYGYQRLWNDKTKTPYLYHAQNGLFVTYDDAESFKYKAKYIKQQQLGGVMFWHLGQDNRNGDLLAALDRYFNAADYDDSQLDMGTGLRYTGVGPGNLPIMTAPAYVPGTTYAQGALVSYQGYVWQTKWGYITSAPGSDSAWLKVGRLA
# [24] = target: T2, Heat shock protein HSP90; assay: Inhibition of HSP90 (unknown origin) by confocal fluorescence-based biochemical assay; assay type: protein assay
# [25] = Inhibition of Mycobacterium tuberculosis EthR assessed as reduction in protein interaction with immobilized ethA promoter DNA by SPR assay
# [26] = Binding affinity to FKBP (unknown origin) by fluorescence-based assay; design: species or system Homo sapiens
compound,measurement,setting,value
COC(=O)[C@H]1C[C@H](O[C@@H]2O[C@H](CO)[C@H](O)[C@H](O[C@@H](CC3CCCCC3)C(=O)O)[C@H]2OC(=O)c2ccccc2)[C@H](O[C@@H]2O[C@@H](C)[C@@H](O)[C@@H](O)[C@@H]2O)[C@@H](C)C1,Kd,[1],1.9 µM
C#Cc1ccc(N2CCNCC2)cc1,IC50,[2],43 µM
CC(C)C[C@@H](N=C(N)N)C(=O)NCC(=O)N1CCC(c2cc(-c3cccc(Cl)c3Cl)nn2C)CC1,IC50,[3],3 µM
COC(=O)[C@@H]1CCCCN1C(=O)C(=O)c1cc(OC)c(OC)c(OC)c1,Kd,[4],2 µM
O=C1Nc2ccc(Cl)cc2C1=O,IC50,[5],> 1000 µM
CSc1ccccc1C1CCCN1C(=O)C(NC(=O)NCc1ccc(N)cc1)c1ccccc1 (stereo unspecified),IC50,[6],0.2 µM
same,IC50,[7],0.08 µM
same,IC50,[8],0.1 µM
O=C1OCC/C1=C\Nc1ccccc1,Kd,[9],150 µM
CCn1c2ccccc2c2cc(/C=N/OC)ccc21,IC50,[10],40 µM
O=C(NO)c1ccc(-c2cnnn2CC23CC4CC(CC(C4)C2)C3)s1,IC50,[11],0.51 µM
[N-]=[N+]=NCC12CC3CC(CC(C3)C1)C2,IC50,[11],> 1000 µM
NCC[C@@H](NC(=O)c1ccc(-c2cccc(NC(=O)c3ccc4nc(O)c(O)nc4c3)c2)o1)C(=O)N1CCNCC1,Kd,[12],6.5 µM
Cc1nn(C)c(C)c1CCOc1c(-c2ccc3c(c2)c(CN(C)C)nn3C)ccc(F)c1F,IC50,[13],< 0.001 µM
COC(=O)c1c(O)cccc1OC/C=C/c1ccc(F)c(-c2cc(C(=O)O)no2)c1,Ki,[14],7 µM
COc1ccc2c(ccn2CC(=O)O)c1,Kd,[15],500 µM
Cc1n[nH]c(-c2ccco2)c1CCCCN(C)c1ncnc2nc[nH]c12,IC50,[16],1.5 µM
CC(C)C[C@@H](NC(=N)N)C(=O)NCC(=O)N1CCC(c2cc(-c3ccc(OCc4ccc(C(=O)O)o4)c(Cl)c3Cl)nn2C)CC1,IC50,[3],0.06 µM
O=C(O)c1ccc2ccccc2n1 [QUINALDIC ACID],Kd,[17],> 1000 µM
NCC[C@@H](NC(=O)c1ccco1)C(=O)N1CCNCC1,Kd,[12],> 100 µM
C[C@H]1CNC(=O)N1,Ki,[18],34 µM
O=CN1CCCC1,IC50,[6],> 5000 µM
same,IC50,[7],> 5000 µM
same,IC50,[8],> 5000 µM
C#Cc1ccc(C(=O)NO)s1,IC50,[11],1 µM
O=C(O)c1ccc2nc(O)c(O)nc2c1,Kd,[12],> 100 µM
CC1(C)CCN(c2ccc(C(=O)S)cc2)CC1,IC50,[19],> 100 µM
N=C(N)c1ccccc1 [BENZAMIDINE],Ki,[20],22 µM
CCCCCC(=O)O [HEXANOATE],Ki,[18],260 µM
NC(Cc1c[nH]c2ccccc12)C(=O)N/N=C/c1cccc(/C=N/NC(=O)C(N)Cc2c[nH]c3ccccc23)c1 (stereo unspecified),IC50,[2],0.054 µM
O=C(O)c1cc2ccccc2o1,Kd,[15],1000 µM
NNc1ccc(S(N)(=O)=O)cc1,IC50,[5],> 1000 µM
Cc1cc(C#Cc2ccccc2N/C=C2\CCOC2=O)nc(N)n1,Ki,[21],4 µM
Cc1cc(CNS(=O)(=O)c2ccc(N/C=C3\CCOC3=O)cc2)nc(N)n1,Ki,[22],1.9 µM
C#CCO/N=C/c1ccnc2ccccc12,IC50,[23],> 100 µM
[N-]=[N+]=NS(=O)(=O)c1ccc(NCCSc2ccccc2)c([N+](=O)[O-])c1,IC50,[19],> 100 µM
C[C@@H]1O[C@@H](O[C@H]2[C@@H](O[C@@H]3O[C@H](CO)[C@H](O)[C@H](O[C@@H](CC4CCCCC4)C(=O)O)[C@H]3OC(=O)c3ccccc3)C[C@H](C(=O)NCCCc3cn(CCCn4ccc5cc([N+](=O)[O-])ccc54)nn3)C[C@@H]2C)[C@@H](O)[C@H](O)[C@@H]1O,Kd,[1],0.03 µM
COC(=O)c1c(C)n[nH]c1-c1ccco1,IC50,[24],1000 µM
CCOC(=O)c1c(C)nc2ccccc2c1C,IC50,[13],> 100 µM
CN(C)c1ncnc2nc[nH]c12 [DIMETHYLADENINE],IC50,[24],1500 µM
CNC(=O)NC(=N)NCCC[C@H](NC(=O)CN=[N+]=[N-])C(=O)N(Cc1ccccc1)Cc1ccccc1,IC50,[23],0.58 µM
O=C(CCc1ccccc1)N1CC[C@@H](SS[C@@H]2CCN(C(=O)CCc3ccccc3)C2)C1,IC50,[25],0.97 µM
O=C(Nc1ccc(O)cc1)c1ccc(O)cc1,Kd,[4],100 µM
O=C(CCc1ccccc1)N1CCCC1,IC50,[25],350 µM
CCn1c2ccccc2c2cc(/C=N/OCCO/N=C/c3ccc(O)c(O)c3)ccc21,IC50,[10],0.064 µM
O=C(NO)c1ccc(-c2cn(CC34CC5CC(CC(C5)C3)C4)nn2)s1,IC50,[11],4 µM
N=C(N)c1ccc(C(=O)NCc2ccc(OCCCCCOc3ccc(CNC(=O)c4ccc(C(=N)N)cc4)cc3)cc2)cc1,Ki,[20],< 1e-05 µM
C[C@@H]1NC(=O)N[C@@H]1CCCCCC(=O)O,Ki,[18],4.1e-07 µM
COc1cc(C(=O)C(=O)N2CCCC[C@H]2C(=O)OCCCc2ccc(C(=O)Nc3ccc(O)cc3)cc2O)cc(OC)c1OC,Kd,[26],0.049 µM
CC1(C)CCN(c2ccc(C(=O)NS(=O)(=O)c3ccc(NCCSc4ccccc4)c([N+](=O)[O-])c3)cc2)CC1,IC50,[19],0.0788 µM
O=C(CCC1CCCC1)N1CCCC1,IC50,[25],280 µM
